Measured values reported in PubChem BioAssay (NCI).
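Assay format: 96-well plates, 48-hour exposure. GI50 marks 50% less growth. TGI: total growth inhibition.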

What was measured:
Assay in all cases: NCI anticancer screen, dose series, 48 h
[1] = test system: RPMI-8226 leukemia
[2] = test system: CCRF-CEM leukemia
[3] = test system: OVCAR-4 ovarian
[4] = test system: HCC-2998 colon
[5] = test system: SF-295 CNS
[6] = test system: MDA-MB-435
[7] = test system: SK-MEL-28 melanoma
[8] = test system: SF-539 CNS
[9] = test system: DU-145 prostate
[10] = test system: EKVX NSCLC
[11] = test system: KM12 colon
[12] = test system: SN12C renal
[13] = test system: A498 renal
[14] = test system: HL-60(TB) leukemia
[15] = test system: UACC-257 melanoma
[16] = test system: COLO 205 colon
[17] = test system: SNB-19 CNS
[18] = test system: NCI-H460 lung
[19] = test system: IGROV1 ovarian
[20] = test system: HT29 colon
[21] = test system: HOP-92 NSCLC
[22] = test system: T-47D breast
[23] = test system: SR leukemia
[24] = test system: UACC-62 melanoma
[25] = test system: RXF 393 renal
[26] = test system: BT-549 breast
[27] = test system: OVCAR-5 ovarian
[28] = test system: NCI-H522 lung
[29] = test system: A549 NSCLC
[30] = test system: MDA-MB-231 breast
[31] = test system: MALME-3M melanoma
[32] = test system: HCT-116 colon
[33] = test system: MOLT-4 leukemia
[34] = test system: HCT-15 colon
[35] = test system: NCI-H226 lung
[36] = test system: NCI/ADR-RES ovarian
[37] = test system: U251 CNS
[38] = test system: SW-620 colon
[39] = test system: SK-MEL-5 melanoma
[40] = test system: SNB-75 CNS
[41] = test system: HS 578T breast
[42] = test system: MCF7 breast
[43] = test system: HOP-62 NSCLC
[44] = test system: ACHN renal
[45] = test system: K-562 leukemia
[46] = test system: SF-268 CNS
[47] = test system: NCI-H23 lung
[48] = test system: TK-10 renal
[49] = test system: LOX IMVI melanoma
[50] = test system: UO-31 renal
[51] = test system: OVCAR-8 ovarian
[52] = test system: 786-0 renal
[53] = test system: OVCAR-3 ovarian
[54] = test system: SK-MEL-2 melanoma
[55] = test system: M14 melanoma
[56] = test system: PC-3 prostate

O=C(NC1CC1)c1ccc(-c2nc3ccc4[nH]ncc4c3c3c2CCCC3)cc1
GI50 [1]: 1.08 µM
TGI [1]: 12 µM
GI50 [2]: 2.06 µM
TGI [2]: > 50 µM
GI50 [3]: 4.62 µM
TGI [3]: > 50 µM
GI50 [4]: 3.27 µM
TGI [4]: 10.1 µM
GI50 [5]: 2.24 µM
TGI [5]: 13.6 µM
GI50 [6]: 1.38 µM
TGI [6]: 5.02 µM
GI50 [7]: 2.3 µM
TGI [7]: 12.1 µM
GI50 [8]: 1.32 µM
TGI [8]: 6.68 µM
GI50 [9]: 2.43 µM
TGI [9]: 20.2 µM
GI50 [10]: 1.33 µM
TGI [10]: 12.2 µM
GI50 [11]: 1.51 µM
TGI [11]: 9.65 µM
GI50 [12]: 2.24 µM
TGI [12]: 20.7 µM
GI50 [13]: 1.03 µM
TGI [13]: 5.01 µM
GI50 [14]: 1.59 µM
TGI [14]: 6.99 µM
GI50 [15]: 9.1 µM
TGI [15]: 34.7 µM
GI50 [16]: 1.8 µM
TGI [16]: 10.4 µM
GI50 [17]: 4.47 µM
TGI [17]: > 50 µM
GI50 [18]: 2.05 µM
TGI [18]: 12.2 µM
GI50 [19]: 0.989 µM
TGI [19]: > 50 µM
GI50 [20]: 2.05 µM
TGI [20]: > 50 µM
GI50 [21]: 1.45 µM
TGI [21]: 25.2 µM
GI50 [22]: 1.62 µM
TGI [22]: 15.4 µM
GI50 [23]: 0.987 µM
TGI [23]: 6.02 µM
GI50 [24]: 2.19 µM
TGI [24]: 9.77 µM
GI50 [25]: 0.967 µM
TGI [25]: 4.03 µM
GI50 [26]: 1.51 µM
TGI [26]: 7.69 µM
GI50 [27]: 7.3 µM
TGI [27]: 47.6 µM
GI50 [28]: 1.21 µM
TGI [28]: 9.54 µM
GI50 [29]: 1.63 µM
TGI [29]: > 50 µM
GI50 [30]: 2.06 µM
TGI [30]: 31.8 µM
GI50 [31]: 3.46 µM
TGI [31]: 11.6 µM
GI50 [32]: 1.34 µM
TGI [32]: 14 µM
GI50 [33]: 1.75 µM
TGI [33]: 20.1 µM
GI50 [34]: 1.58 µM
TGI [34]: 13.9 µM
GI50 [35]: 3.41 µM
TGI [35]: 47.6 µM
GI50 [36]: 6.56 µM
TGI [36]: > 50 µM
GI50 [37]: 2.19 µM
TGI [37]: 13.7 µM
GI50 [38]: 1.41 µM
TGI [38]: 10.3 µM
GI50 [39]: 2.67 µM
TGI [39]: 9.83 µM
GI50 [40]: 1.54 µM
TGI [40]: 4.87 µM
GI50 [41]: 1.06 µM
TGI [41]: 3.37 µM
GI50 [42]: 1.44 µM
TGI [42]: 9.57 µM
GI50 [43]: 1.25 µM
TGI [43]: 24.8 µM
GI50 [44]: 1.03 µM
TGI [44]: > 50 µM
GI50 [45]: 1.95 µM
TGI [45]: > 50 µM
GI50 [46]: 1.87 µM
TGI [46]: 14 µM
GI50 [47]: 3.41 µM
TGI [47]: 31.3 µM
GI50 [48]: 0.991 µM
TGI [48]: 25.6 µM
GI50 [49]: 1.95 µM
TGI [49]: 11.7 µM
GI50 [50]: 1.84 µM
TGI [50]: 13.5 µM
GI50 [51]: 2.34 µM
TGI [51]: > 50 µM
GI50 [52]: 2.11 µM
TGI [52]: 12.3 µM
GI50 [53]: 4.04 µM
TGI [53]: 15.8 µM
GI50 [54]: 1.76 µM
TGI [54]: 7.36 µM
GI50 [55]: 2.33 µM
TGI [55]: 10.4 µM
GI50 [56]: 2.29 µM
TGI [56]: 29.7 µM
